Laboratory results published in patent US7868135B2, “Compositions of lipopeptide antibiotic derivatives and methods of use thereof” (priority 2003, dated 2011).
Where two headings read alike, the source gives them in different places. Marks after values point to notes of the source that are not given here. Starred links: 1 amine or outer side, 2 acyl side, 3 side chain; linkers in the order of their positions; H or OH if unused. Positions of bridges follow the written chain, without caps; N, C: chain ends. Non-standard residues stand in square brackets, D forms with d. Residues, ends and D or L forms follow the SMILES beside them. ξ: configuration not given here. *: point of attachment. X25 = CC(NC(=O)[C@@H]1CCC(=O)N1)C(N[*:1])C(=O)[*:2]; ξAbu(βξ-NH2) = CC(N[*:3])C(N[*:1])C(=O)[*:2]; Phac(3-amino) = O=C(Cc1cccc(N[*:1])c1)[*:2]; Pentadecanoyl = CCCCCCCCCCCCCCC(=O)*; ξAsp(βξ-Me) = CC(C(=O)O)C(N)C(=O)O; ξAbu(3ξ-NH2) = CC(N)C(N)C(=O)O; X32 = CC(C)CCCCCC/C=C\C(=O)*; 12Ado = NCCCCCCCCCCCC(=O)O; Decanoyl = CCCCCCCCCC(=O)*; Octanoyl = CCCCCCCC(=O)*; Pip = O=C(O)[CH]1CCCCN1; ξD = NC(CC(=O)O)C(=O)O; ξPip = O=C(O)C1CCCCN1; ξV = CC(C)C(N)C(=O)O; ξP = O=C(O)C1CCCN1

Tested on: Staphylococcus aureus (MSSA)
Outline: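 Broth microdilution MIC per NCCLS M7-A6 with doubling serial dilutions, in cation-adjusted Mueller-Hinton broth supplemented with 0.625 mM calcium.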

[1] = S. aureus (MSSA), CAMHB supplemented with 0.625 mM calcium, 24 hours at about 37° C., a range = compound tested multiple times

Compound | MIC (24 h) [µg/mL] | MIC [1]
CCCCCCCCCC(=O)NCC(=O)NC(CC(=O)O)C(=O)NC1C(=O)N2CCCCC2C(=O)NC(C(C)C(=O)O)C(=O)NC(CC(=O)O)C(=O)NCC(=O)NC(CC(=O)O)C(=O)NCC(=O)NC(C(C)N)C(=O)NC(C(C)C)C(=O)N2CCCC2C(=O)NC1C (stereo not drawn) [Compound 360, C10-Gly-Amphomycin] (Decanoyl-GD[ξAbu(βξ-NH2)][Pip][ξAsp(βξ-Me)]DGDG[ξAbu(3ξ-NH2)]VP; lactam 3-C; configuration not given here) | >64 | –
CCCCCCCC(=O)Nc1cccc(CC(=O)NC(CC(=O)O)C(=O)NC2C(=O)N3CCCCC3C(=O)NC(C(C)C(=O)O)C(=O)NC(CC(=O)O)C(=O)NCC(=O)NC(CC(=O)O)C(=O)NCC(=O)NC(C(C)N)C(=O)NC(C(C)C)C(=O)N3CCCC3C(=O)NC2C)c1 (stereo not drawn) [Compound 361, C8-(M-Apa)-Amphomycin] (Octanoyl-[Phac(3-amino)]D[ξAbu(βξ-NH2)][Pip][ξAsp(βξ-Me)]DGDG[ξAbu(3ξ-NH2)]VP; lactam 3-C; configuration not given here) | >64 | –
CC(C)CCCCCC/C=C\C(=O)NC(CC(=O)O)C(=O)NC1C(=O)N2CCCCC2C(=O)NC(C(C)C(=O)O)C(=O)NC(CC(=O)O)C(=O)NCC(=O)NC(CC(=O)O)C(=O)NCC(=O)NC(C(C)N)C(=O)NC(C(C)C)C(=O)N2CCCC2C(=O)NC1C (stereo not drawn) [Compound 364, (10-Methyl-Undec-2-Enoyl)-Amphomycin] (X32-D[ξAbu(βξ-NH2)][Pip][ξAsp(βξ-Me)]DGDG[ξAbu(3ξ-NH2)]VP; lactam 2-C; configuration not given here) | 4 to 8 | –
CCCCCCCCCCCCCCC(=O)NC(CC(=O)O)C(=O)NC1C(=O)N2CCCCC2C(=O)NC(C(C)C(=O)O)C(=O)NC(CC(=O)O)C(=O)NCC(=O)NC(CC(=O)O)C(=O)NCC(=O)NC(C(C)NC(=O)[C@@H]2CCC(=O)N2)C(=O)NC(C(C)C)C(=O)N2CCCC2C(=O)NC1C (stereo partly drawn) [Compound 373] (Pentadecanoyl-[ξD][ξAbu(βξ-NH2)][ξPip][ξAsp(βξ-Me)][ξD]G[ξD]G[X25][ξV][ξP]; lactam 2-C) | >64 | –
CC(=O)NCCCCCCCCCCCC(=O)NC(CC(=O)O)C(=O)NC1C(=O)N2CCCCC2C(=O)NC(C(C)C(=O)O)C(=O)NC(CC(=O)O)C(=O)NCC(=O)NC(CC(=O)O)C(=O)NCC(=O)NC(C(C)N)C(=O)NC(C(C)C)C(=O)N2CCCC2C(=O)NC1C (stereo not drawn) [Compound 374, (12-Acetylaminododecanoyl)-Amphomycin] (Ac-[12Ado]D[ξAbu(βξ-NH2)][Pip][ξAsp(βξ-Me)]DGDG[ξAbu(3ξ-NH2)]VP; lactam 3-C; configuration not given here; N-terminus assumed) | >64 | –
CC(C)C1NC(=O)C(C(C)N)NC(=O)CNC(=O)C(CC(=O)O)NC(=O)CNC(=O)C(CC(=O)O)NC(=O)C(C(C)C(=O)O)NC(=O)C2CCCCN2C(=O)C(NC(=O)C(CC(=O)O)NC(=O)CCCCCCCCCCCN)C(C)NC(=O)C2CCCN2C1=O (stereo not drawn) [Compound 375, (12-Aminododecoyl)-Amphomycin] (H-[12Ado]D[ξAbu(βξ-NH2)][Pip][ξAsp(βξ-Me)]DGDG[ξAbu(3ξ-NH2)]VP; lactam 3-C; configuration not given here) | >64 | –
(2-Dodecanoylamino-Thiazol-4-yl)Acetyl-Amphomycin [Compound 337] | – | 0.25 to 1 µg/mL
(12-Methyl-Tetradec-2-Enoyl)-Aspartocin-9-Sar [Compound 371] | – | 0.5 µg/mL
C12-Amphomycin-9-gDab [Compound 138] | – | 138/32 μg/mL
C13-Amphomycin-9-gDab [Compound 135] | – | 135/8 μg/mL
C14-Amphomycin-9-gDab [Compound 139] | – | 139/4 μg/mL
C15-Amphomycin-9-(Carbamoyl-Leu) [Compound 204] | – | 16 µg/mL
C17-Amphomycin-Gly-Lys [Compound 142] | – | 142/32 μg/mL
CH3—(CH2)7—NH—C(═O)-(M-Phenylacetyl)-Amphomycin [Compound 306] | – | 16 µg/mL
CH3—(CH2)7—NH—C(═O)-(p-Phenylacetyl)-Amphomycin [Compound 288] | – | 16 µg/mL
CH3—(CH2)10—NH—C(═O)-(M-Phenylacetyl)-Amphomycin [Compound 362] | – | 0.5 µg/mL
CH3—(CH2)10—NH—C(═O)-(p-Phenylacetyl)-Amphomycin [Compound 290] | – | 1 µg/mL
CH3—(CH2)13—NH—C(═O)-(M-Phenylacetyl)-Amphomycin [Compound 292] | – | 1 µg/mL
CH3—(CH2)13—NH—C(═O)-(p-Phenylacetyl)-Amphomycin [Compound 289] | – | 2 µg/mL
CH3—(CH2)15—NH—C(═O)-(M-Phenylacetyl)-Amphomycin [Compound 302] | – | 4 µg/mL
CH3—(CH2)15—NH—C(═O)-(p-Phenylacetyl)-Amphomycin [Compound 287] | – | 4 µg/mL
Lys-Gly-Amphomycin-9-C13 [Compound 332] | – | >64 µg/mL
β-Isomer of (8-Dodecyloxy-Quinoline-2-Carbonyl)-Amphomycin [Compound 340] | – | 4 µg/mL
β-Isomer of CH3—(CH2)10—NH—C(═O)-(GABA)-Amphomycin [Compound 330] | – | >64^† μg/mL
β-Isomer of CH3—(CH2)13—NH—C(═O)-Amphomycin [Compound 329] | – | 4^† μg/mL
